Source: patent US11591341B2 (ALIGOS THERAPEUTICS, INC., priority 2019, dated 2023)

Test system: HBV
Experiment: HBV-DNA Antiviral Assay Using HepG2.117 Cells (intracellular HBV DNA by qPCR)
Assay type: cell-based, hepatitis B virus (genotype D)
Details: Hepatitis B virus, HepG2.117
Procedure, shortened: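 Endpoint: qPCR copy number of intracellular HBV DNA after 3-day compound exposure, with inhibition set relative to the 2% DMSO control. The cells were doxycycline-free HepG2.117 carrying a Tet-off genotype D genome, dosed at nine 4-fold dilutions. A duplicate plate gave ATP-based viability (CC50).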

C[C@@H](c1ccccc1)N1C[C@@H](O)Cn2c(c3n(c2=O)CCN(C(=O)c2ccc(Br)c(Cl)c2)C3)C1=O (stereo in doubt) [Example 237, (11RS)-2-(4-bromo-3-chloro-benzoyl)-11-hydroxy-13-[(1S)-1-phenylethyl]-4,7,9,13-tetrazatricyclo[7.5.0.0^2,7]tetradec-1-ene-8,14-dione]
EC50: 500 to 5000 nM

COc1ccc(-n2c(C(=O)N[C@@H](C)c3ccccc3F)c3n(c2=O)CCN(C(=O)c2ccc(Br)c(Cl)c2)C3)cc1 (stereo in doubt) [Example 162, 7-(4-bromo-3-chloro-benzoyl)-2-(4-methoxyphenyl)-3-oxo-N-[rac-(1S)-1-(2-fluorophenyl)ethyl]-6,8-dihydro-5H-imidazo[1,5-a]pyrazine-1-carboxamide]
EC50: 100 to 500 nM

C[C@@H](NC(=O)c1c2n(c(=O)n1-c1ccc(OC3CC3)cc1)CCN(C(=O)c1ccc(Br)c(Cl)c1)C2)c1ccc(OC(F)F)cc1F (racemic) [Example 313, 7-(4-bromo-3-chloro-benzoyl)-2-[4-(cyclopropoxy)phenyl]-3-oxo-N-[rac-(1R)-1-[4-(difluoromethoxy)-2-fluoro-phenyl]ethyl]-6,8-dihydro-5H-imidazo[1,5-a]pyrazine-1-carboxamide]
EC50: 100 to 500 nM

C[C@@H](NC(=O)c1c2n(c(=O)n1-c1ccc(OC3CC3)cc1)CCN(C(=O)c1ccc(Br)c(Cl)c1)C2)c1ccc(OC2COC2)cc1F (stereo in doubt) [Example 346, 7-(4-bromo-3-chloro-benzoyl)-2-[4-(cyclopropoxy)phenyl]-3-oxo-N-[rac-(1R)-1-[2-fluoro-4-(oxetan-3-yloxy)phenyl]ethyl]-6,8-dihydro-5H-imidazo[1,5-a]pyrazine-1-carboxamide]
EC50: 100 to 500 nM

C[C@H](NC(=O)c1c2n(c(=O)n1-c1ccc(OCC(F)(F)F)cc1)CCN(C(=O)c1ccc(Br)c(Cl)c1)C2)c1ccc(OCC(N)=O)cc1-n1cccn1 (stereo in doubt) [Example 380, 7-(4-bromo-3-chloro-benzoyl)-3-oxo-N-[rac-(1S)-1-[4-(2-amino-2-oxo-ethoxy)-2-pyrazol-1-yl-phenyl]ethyl]-2-[4-(2,2,2-trifluoroethoxy)phenyl]-6,8-dihydro-5H-imidazo[1,5-a]pyrazine-1-carboxamide]
EC50: > 5000 nM

COc1ccc(-n2c(C(=O)NCc3ccc4c(c3)OCCO4)c3n(c2=O)CCN(C(=O)c2ccc(Cl)c(Cl)c2)C3)cc1 [Example 91, 7-(3,4-dichlorobenzoyl)-N-(2,3-dihydro-1,4-benzodioxin-6-ylmethyl)-2-(4-methoxyphenyl)-3-oxo-6,8-dihydro-5H-imidazo[1,5-a]pyrazine-1-carboxamide]
EC50: 500 to 5000 nM

CNC(=O)c1cccc(-n2c(C(=O)NCc3ccccc3)c3n(c2=O)CCN(C(=O)c2ccc(Br)c(Cl)c2)C3)c1 [Example 48, N-benzyl-7-(4-bromo-3-chloro-benzoyl)-2-[3-(methylcarbamoyl)phenyl]-3-oxo-6,8-dihydro-5H-imidazo[1,5-a]pyrazine-1-carboxamide]
EC50: 500 to 5000 nM

COc1ccc(-n2c(C(=O)NCc3ccccc3)c3n(c2=O)CCN(C(=O)c2ccc(Cl)c(Cl)c2)C3)c(C)c1 [Example 87, N-benzyl-7-(3,4-dichlorobenzoyl)-2-(4-methoxy-2-methyl-phenyl)-3-oxo-6,8-dihydro-5H-imidazo[1,5-a]pyrazine-1-carboxamide]
EC50: > 5000 nM

CC(NC(=O)c1c2n(c(=O)n1-c1ccc(OC3CC3)cc1)CCN(C(=O)c1ccc(Br)c(Cl)c1)C2)c1ccc(C#N)cc1F (racemic) [Example 340, 7-(4-bromo-3-chloro-benzoyl)-2-[4-(cyclopropoxy)phenyl]-3-oxo-N-[rac-(1S)-1-(4-cyano-2-fluoro-phenyl)ethyl]-6,8-dihydro-5H-imidazo[1,5-a]pyrazine-1-carboxamide]
EC50: 100 to 500 nM

C[C@@H]1Cn2c(c3n(c2=O)C[C@H](F)CN(Cc2ccccc2)C3=O)CN1C(=O)c1ccc(Br)c(Cl)c1 (stereo in doubt) [Example 374, rac-(5R,11R)-13-benzyl-4-(4-bromo-3-chloro-benzoyl)-11-fluoro-5-methyl-4,7,9,13-tetrazatricyclo[7.5.0.0^2,7]tetradec-1-ene-8,14-dione]
EC50: 100 to 500 nM

C[C@H](NC(=O)c1c2n(c(=O)n1-c1ccccc1)CCN(C(=O)c1ccc(Br)c(Cl)c1)C2)c1ccccc1 (stereo in doubt) [Example 38, 7-(4-bromo-3-chloro-benzoyl)-3-oxo-2-phenyl-N-[rac-(1S)-1-phenylethyl]-6,8-dihydro-5H-imidazo[1,5-a]pyrazine-1-carboxamide]
EC50: 500 to 5000 nM

COc1ccc(-n2c(C(=O)NCc3ccccc3-n3cccn3)c3n(c2=O)CCN(C(=O)c2ccc(Br)c(Cl)c2)C3)cc1 [Example 167, 7-(4-bromo-3-chloro-benzoyl)-2-(4-methoxyphenyl)-3-oxo-N-[(2-pyrazol-1-ylphenyl)methyl]-6,8-dihydro-5H-imidazo[1,5-a]pyrazine-1-carboxamide]
EC50: < 100 nM

COc1ccc([C@@H](C)NC(=O)c2c3n(c(=O)n2-c2ccc(OC4CC4)cc2)CC(C)N(C(=O)c2ccc(Br)c(Cl)c2)C3)cc1 (mixture of isomers) [Example 449, (6RS)-7-(4-bromo-3-chloro-benzoyl)-2-[4-(cyclopropoxy)phenyl]-N-[(1R)-1-(4-methoxyphenyl)ethyl]-6-methyl-3-oxo-6,8-dihydro-5H-imidazo[1,5-a]pyrazine-1-carboxamide]
EC50: 500 to 5000 nM

C[C@@H](NC(=O)c1c2n(c(=O)n1-c1ccc(OCC(F)(F)F)cc1)CCN(C(=O)c1ccc(Br)c(Cl)c1)C2)c1ccccc1 (stereo in doubt) [Example 128, 7-(4-bromo-3-chloro-benzoyl)-3-oxo-N-[rac-(1R)-1-phenylethyl]-2-[4-(2,2,2-trifluoroethoxy)phenyl]-6,8-dihydro-5H-imidazo[1,5-a]pyrazine-1-carboxamide]
EC50: 100 to 500 nM

O=C(NCc1cccc2cccnc12)c1c2n(c(=O)n1-c1ccc(OCC(F)(F)F)cc1)CCN(C(=O)c1ccc(Br)c(Cl)c1)C2 [Example 230, 7-(4-bromo-3-chloro-benzoyl)-3-oxo-N-(8-quinolylmethyl)-2-[4-(2,2,2-triflurooethoxy)phenyl]-6,8-dihydro-5H-imidazo[1,5-a]pyrazine-1-carboxamide]
EC50: 100 to 500 nM

COc1ccc(CNC(=O)c2c3n(c(=O)n2-c2ccc(OC(C)C)cc2)CCN(C(=O)c2ccc(Br)c(Cl)c2)C3)c(OC)c1 [Example 228, 7-(4-bromo-3-chloro-benzoyl)-N-[(2,4-dimethoxypehnyl)methyl]-2-(4-isopropoxyphenyl)-3-oxo-6,8-dihydro-5H-imidazo[1,5-a]pyrazine-1-carboxamide]
EC50: 100 to 500 nM

O=C(NCc1ccccc1-c1cccnn1)c1c2n(c(=O)n1-c1ccc(OCC(F)(F)F)cc1)CCN(C(=O)c1ccc(Br)c(Cl)c1)C2 [Example 388, 7-(4-bromo-3-chloro-benzoyl)-3-oxo-N-[(2-pyridazin-3-ylphenyl)methyl]-2-[4-(2,2,2-trifluoroethoxy)phenyl]-6,8-dihydro-5H-imidazo[1,5-a]pyrazine-1-carboxamide]
EC50: < 100 nM

COc1ccc([C@H](C)NC(=O)c2c3n(c(=O)n2-c2ccc(OC(C)C)cc2)CCN(C(=O)c2ccc(Br)c(Cl)c2)C3)c(F)c1 (stereo in doubt) [Example 235, 7-(4-bromo-3-chloro-benzoyl)-2-(4-isopropoxyphenyl)-3-oxo-N-[rac-(1S)-1-(2-fluoro-4-methoxy-phenyl)ethyl]-6,8-dihydro-5H-imidazo[1,5-a]pyrazine-1-carboxamide]
EC50: 100 to 500 nM

COc1ccc(-n2c(C(=O)NCc3ccc4c(c3)OCO4)c3n(c2=O)CCN(C(=O)c2ccc(Br)c(Cl)c2)C3)cc1 [Example 182, N-(1,3-benzodioxol-5-ylmethyl)-7-(4-bromo-3-chloro-benzoyl)-2-(4-methoxyphenyl)-3-oxo-6,8-dihydro-5H-imidazo[1,5-a]pyrazine-1-carboxamide]
EC50: 100 to 500 nM

C[C@H](NC(=O)c1c2n(c(=O)n1-c1ccc(OCC(F)(F)F)cc1)CCN(C(=O)c1ccc(Br)c(Cl)c1)C2)c1ccccc1F (stereo in doubt) [Example 264, 7-(4-bromo-3-chloro-benzoyl)-3-oxo-N-[rac-(1S)-1-(2-fluorophenyl)ethyl]-2-[4-(2,2,2-trifluoroethoxy)phenyl]-6,8-dihydro-5H-imidazo[1,5-a]pyrazine-1-carboxamide]
EC50: 500 to 5000 nM

COc1ccc(-n2c(C(=O)N[C@H]3CCc4cc(OC)ccc43)c3n(c2=O)CCN(C(=O)c2ccc(Br)c(Cl)c2)C3)cc1 (stereo in doubt) [Example 100, 7-(4-bromo-3-chloro-benzoyl)-2-(4-methoxyphenyl)-3-oxo-N-[rac-(1S)-5-methoxyindazin-1-yl]-6,8-dihydro-5H-imidazo[1,5-a]pyrazine-1-carboxamide]
EC50: 100 to 500 nM

C[C@H](NC(=O)c1c2n(c(=O)n1-c1ccc(OCC(F)(F)F)cc1)CCN(C(=O)c1ccc(Br)c(Cl)c1)C2)c1ccc(O[C@H](C)C(N)=O)cc1F (stereo in doubt) [Example 361, 7-(4-bromo-3-chloro-benzoyl)-3-oxo-N-[rac-(1S)-1-[2-fluoro-4-[rac-(1R)-2-amino-1-methyl-2-oxo-ethoxy]phenyl]ethyl]-2-[4-(2,2,2-trifluoroethoxy)phenyl]-6,8-dihydro-5H-imidazo[1,5-a]pyrazine-1-carboxamide]
EC50: 100 to 500 nM

O=C(NCc1ccccc1-n1cncn1)c1c2n(c(=O)n1-c1ccc(OCC(F)(F)F)cc1)CCN(C(=O)c1ccc(Br)c(Cl)c1)C2 [Example 304, 7-(4-bromo-3-chloro-benzoyl)-3-oxo-N-[[2-(1,2,4-triazol-1-yl)phenyl]methyl]-2-[4-(2,2,2-trifluoroethoxy)phenyl]-6,8-dihydro-5H-imidazo[1,5-a]pyrazine-1-carboxamide]
EC50: < 100 nM

Cc1coc2ccc(-n3c(C(=O)NCc4ccccc4)c4n(c3=O)CCN(C(=O)c3ccc(Br)c(Cl)c3)C4)cc12 [Example 276]
EC50: 100 to 500 nM
